# Measured values from PMC7731314, “Tropinone-Derived Alkaloids as Potent Anticancer Agents: Synthesis, Tyrosinase Inhibition, Mechanism of Action, DFT Calculation, and Molecular Docking Studies” (International Journal of Molecular Sciences, 2020).
# Where two headings read alike, the source gives them in different places.
# Key:
# [1] = test system: A549 cells; assay: Annexin V-FITC/PI cell death by flow cytometry, A549; type: cell-based, human; conditions: for IC50: Homo sapiens, read-out: IC50 for apoptosis
# Description: The quantitative analysis of compound 3a-induced cell death was performed using an Annexin V-fluorescein isothiocyanate (FITC)/propidium iodide (PI) apoptosis kit (BD Biosciences, BD Pharmingen™, San Jose, CA, USA) as previously described. Briefly, the RPMI 8226 or A549 cells growing on the 6-well plates in the culture medium with 2% FBS were subjected to increasing concentrations of compound 3a (2.5, 5, 10, 20, or 40 μM) for 24 and 48 h. After the treatment, the cells were harvested, centrifuged at 1000 rpm and room temperature (RT) for 5 min, washed twice with PBS, and stained with […] of AnnexinV-FITC and […] of PI. After incubation for 15 min in the dark at room temperature, the cells were immediately analyzed using FACS Calibur. The intensity of fluorescence of AnnexinV-FITC and PI stained cells was determined by acquisition of at least 10,000 events per sample within the rate >60 events/s. The FACS data were analyzed using Cell Quest Pro Version 6.0. for the Macintosh operating system. The data were analyzed to determine the percentage of viable, early apoptotic, late apoptotic, and necrotic cells.
# [2] = test system: human lung carcinoma (A549) cell line; assay: MTT cell proliferation assay, A549; type: cell-based; conditions: antiproliferative, 96 h, read-out: IC50 ± SD A549
# Description: The influence of the tested compounds on the proliferation of RPMI 8226 and A549 cells was estimated with the MTT assay as described previously. Briefly, 1 × 10^4 cells/mL (RPMI 8226) or 0.2 × 10^4 (A549) cells per well were seeded into 96-well plates and cultured (in growth medium containing 10% FBS) with different concentrations of each compound ranging from 3.125 to 100 μM. The control cells were treated with the vehicle DMSO (0.1%).
# [3] = molecular target: mushroom tyrosinase (Agaricus bisporus, UniProt C7FF04); assay: Kinetic analysis of the inhibition of tyrosinase (Lineweaver-Burk); type: biochemical; conditions: tyrosinase-catalyzed oxidation of L-DOPA
# Chain of mushroom tyrosinase (C7FF04 1-392): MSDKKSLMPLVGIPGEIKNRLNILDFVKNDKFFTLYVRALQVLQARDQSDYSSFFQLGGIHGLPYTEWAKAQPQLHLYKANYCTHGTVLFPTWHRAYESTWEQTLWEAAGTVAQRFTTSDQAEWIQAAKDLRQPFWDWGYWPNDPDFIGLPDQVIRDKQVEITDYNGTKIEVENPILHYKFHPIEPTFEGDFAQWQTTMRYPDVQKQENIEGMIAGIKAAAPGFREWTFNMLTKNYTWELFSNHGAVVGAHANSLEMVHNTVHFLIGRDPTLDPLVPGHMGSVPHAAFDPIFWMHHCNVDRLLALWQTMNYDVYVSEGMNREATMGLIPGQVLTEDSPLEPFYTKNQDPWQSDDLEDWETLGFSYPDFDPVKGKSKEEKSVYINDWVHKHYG
# Description: To understand the mechanism of mushroom tyrosinase inhibition by new compounds 3a–3h, enzyme inhibition kinetic studies were performed. The mechanism of tyrosinase inhibition was determined using Lineweaver–Burk plot, which is a useful graphical method for analysis of the Michaelis–Menten equations used to determine the inhibition constant […].
# A series of experiments were performed to determine the inhibition kinetics of compounds by following the already reported method. The inhibitor concentrations for compounds were 50 and 100 µM. Substrate L-DOPA concentration was between 100 and 250 µM in all kinetic studies. Maximal initial velocity was determined from the initial linear portion of absorbance up to ten minutes after addition of enzyme. The inhibition type of the enzyme, Michaelis constant (KM) and maximal velocity (Vmax) were determined by Lineweaver–Burk plots of inverse of velocities (1/V) versus inverse of substrate concentration 1/[L-DOPA] mM^−1.
# [4] = test system: RPMI 8226 cells; type: cell-based, human
# Description: The RPMI 8226 or A549 cells were seeded in 6-well plates in medium containing 10% FBS without or with compound 3a (2.5, 5, 10, 20, or 40 µM). After 24-h and 48-h treatment, the cell cycle analysis was performed by determination of the DNA contents on the basis of PI staining as described previously. Briefly, the cells were harvested, washed with PBS, and fixed overnight with 80% ethanol at −20 °C. After that, the cells were washed with PBS and stained with PI using PI/RNase Staining Buffer (BD Biosciences, BD Pharmingen™, USA) for 30 min in darkness at RT. Next, the stained cells were analyzed using FACS Calibur. The intensity of PI fluorescence of individual nuclei was determined and at least 10 000 events were measured within an acquisition rate >60 events/s. The FACS data were analyzed using Cell Quest Pro Version 6.0 (BD Biosciences, San Jose, CA, USA). for the Macintosh operating system. The data were analyzed to determine the percentage of cells at the sub-G1 phase (apoptotic cells) and each phase of the cell cycle (G1, S, and G2/M).
smiles,measurement,setting,value
"CN1C2CCC1CC(=NNc1nc(-c3ccc(I)cc3)cs1)C2 [Compound 3a, 4-(4-Iodophenyl)-2-(2-(8-methyl-8-azabicyclo[3.2.1]octan-3-ylidene)hydrazinyl)thiazole]",Apoptosis (early + late),"[1]; A549, 2.5 µM, 24 hours",14.30±2.21 % of cells ± SD
same,Necrosis,"[1]; A549, 2.5 µM, 24 hours",4.79±1.14 % of cells ± SD
same,Apoptosis (early + late),"[1]; A549, 2.5 µM, 48 hours",18.41±3.95 % of cells ± SD
same,Necrosis,"[1]; A549, 2.5 µM, 48 hours",4.11±1.44 % of cells ± SD
same,Apoptosis (early + late),"[1]; A549, 5 µM, 24 hours",14.82±2.42 % of cells ± SD
same,Necrosis,"[1]; A549, 5 µM, 24 hours",4.40±1.66 % of cells ± SD
same,Apoptosis (early + late),"[1]; A549, 5 µM, 48 hours",22.48±8.36 % of cells ± SD
same,Necrosis,"[1]; A549, 5 µM, 48 hours",4.93±4.26 % of cells ± SD
same,Apoptosis (early + late),"[1]; A549, 10 µM, 24 hours",18.18±2.52 % of cells ± SD
same,Necrosis,"[1]; A549, 10 µM, 24 hours",4.87±1.35 % of cells ± SD
same,Apoptosis (early + late),"[1]; A549, 10 µM, 48 hours",27.17±11.71 % of cells ± SD
same,Necrosis,"[1]; A549, 10 µM, 48 hours",4.09±2.58 % of cells ± SD
same,Apoptosis (early + late),"[1]; A549, 20 µM, 24 hours",23.43±4.57 % of cells ± SD
same,Necrosis,"[1]; A549, 20 µM, 24 hours",4.56±1.90 % of cells ± SD
same,Apoptosis (early + late),"[1]; A549, 20 µM, 48 hours",40.20±9.87 % of cells ± SD
same,Necrosis,"[1]; A549, 20 µM, 48 hours",4.87±3.04 % of cells ± SD
same,Apoptosis (early + late),"[1]; A549, 40 µM, 24 hours",73.96±19.94 % of cells ± SD
same,Necrosis,"[1]; A549, 40 µM, 24 hours",7.89±1.10 % of cells ± SD
same,Apoptosis (early + late),"[1]; A549, 40 µM, 48 hours",89.43±6.65 % of cells ± SD
same,Necrosis,"[1]; A549, 40 µM, 48 hours",8.81±6.51 % of cells ± SD
same,Necrosis induction,"[1]; A549, up to highest concentration 40 µM",did not induce necrosis
same,IC50,"[1]; A549, 24 h",27.7 µM
same,IC50,"[1]; A549, 48 h",17.4 µM
same,IC50,[2],13.8 ± 1.9 µM
same,Inhibitory Mechanism,[3],mixed
same,Cell cycle distribution G0/G1,"[4]; RPMI 8226, 2.5 µM, 24 h",41.14±1.03 % of cells
same,Cell cycle distribution G2,"[4]; RPMI 8226, 2.5 µM, 24 h",22.35±1.19 % of cells
same,Cell cycle distribution S,"[4]; RPMI 8226, 2.5 µM, 24 h",21.59±1.77 % of cells
same,Cell cycle distribution Sub-G1,"[4]; RPMI 8226, 2.5 µM, 24 h",15.53±2.23 % of cells
same,Cell cycle distribution G0/G1,"[4]; RPMI 8226, 2.5 µM, 48 h",35.8±1.49 % of cells
same,Cell cycle distribution G2,"[4]; RPMI 8226, 2.5 µM, 48 h",16.99±2 % of cells
same,Cell cycle distribution S,"[4]; RPMI 8226, 2.5 µM, 48 h",26.22±0.97 % of cells
same,Cell cycle distribution Sub-G1,"[4]; RPMI 8226, 2.5 µM, 48 h",21.49±0.94 % of cells
same,Cell cycle distribution G0/G1,"[4]; RPMI 8226, 5 µM, 24 h",38.23±6.83 % of cells
same,Cell cycle distribution G2,"[4]; RPMI 8226, 5 µM, 24 h",21.31±4.02 % of cells
same,Cell cycle distribution S,"[4]; RPMI 8226, 5 µM, 24 h",18.68±2.58 % of cells
same,Cell cycle distribution Sub-G1,"[4]; RPMI 8226, 5 µM, 24 h",21.32±6.2 % of cells
same,Cell cycle distribution G0/G1,"[4]; RPMI 8226, 5 µM, 48 h",40.3±3.15 % of cells
same,Cell cycle distribution G2,"[4]; RPMI 8226, 5 µM, 48 h",15.23±5.04 % of cells
same,Cell cycle distribution S,"[4]; RPMI 8226, 5 µM, 48 h",19.12±2.51 % of cells
same,Cell cycle distribution Sub-G1,"[4]; RPMI 8226, 5 µM, 48 h",25.53±7.59 % of cells
same,Cell cycle distribution G0/G1,"[4]; RPMI 8226, 10 µM, 24 h",38.08±9.38 % of cells
same,Cell cycle distribution G2,"[4]; RPMI 8226, 10 µM, 24 h",17.45±2.75 % of cells
same,Cell cycle distribution S,"[4]; RPMI 8226, 10 µM, 24 h",21.4±3.5 % of cells
same,Cell cycle distribution Sub-G1,"[4]; RPMI 8226, 10 µM, 24 h",23.53±7.04 % of cells
same,Cell cycle distribution G0/G1,"[4]; RPMI 8226, 10 µM, 48 h",38.5±2.77 % of cells
same,Cell cycle distribution G2,"[4]; RPMI 8226, 10 µM, 48 h",18.78±2.32 % of cells
same,Cell cycle distribution S,"[4]; RPMI 8226, 10 µM, 48 h",18.61±4.5 % of cells
same,Cell cycle distribution Sub-G1,"[4]; RPMI 8226, 10 µM, 48 h",28.01±5.09 % of cells
same,Cell cycle distribution G0/G1,"[4]; RPMI 8226, 20 µM, 24 h",42.63±4.03 % of cells
same,Cell cycle distribution G2,"[4]; RPMI 8226, 20 µM, 24 h",15.7±5.79 % of cells
same,Cell cycle distribution S,"[4]; RPMI 8226, 20 µM, 24 h",19.83±2.92 % of cells
same,Cell cycle distribution Sub-G1,"[4]; RPMI 8226, 20 µM, 24 h",24.09±2.62 % of cells
same,Cell cycle distribution G0/G1,"[4]; RPMI 8226, 20 µM, 48 h",31.66±10.94 % of cells
same,Cell cycle distribution G2,"[4]; RPMI 8226, 20 µM, 48 h",17.47±1.42 % of cells
same,Cell cycle distribution S,"[4]; RPMI 8226, 20 µM, 48 h",20.74±2.14 % of cells
same,Cell cycle distribution Sub-G1,"[4]; RPMI 8226, 20 µM, 48 h",29.68±10.49 % of cells
